Experimental data as given in US8741889B2, “Method of treating non-small cell lung cancer and colon cancer with gamma-secretase inhibitor” (Hoffmann-La Roche Inc, priority 2008, dated 2014).

Tests used:
[1] = tested on: MiaPaca2 human pancreatic carcinoma xenografts; assay: Antitumor efficacy in MiaPaca2 pancreatic xenografts in nude mice; format: in vivo; conditions: 60 mg/kg ip q3d, day 37
Method: Female (athymic nu/nu) nude mice were obtained from Charles River Laboratories (Wilmington, Mass.), while female SCID-beige mice were purchased from Taconic (Germantown, N.Y.). Mice were used when they were approximately 8-12 weeks old (nudes) or 8-10 weeks old (SCID-beige), and weighed approximately 23-25 grams. The health of all animals was determined daily by gross observation of experimental animals and by the analyses of blood samples of sentinel animals that were housed on the shared shelf racks. All animals were allowed to acclimate and recover from any shipping related stress for a minimum of 72 hours prior to experimental use. Autoclaved water and irradiated food [5058-ms Pico chow (mouse) Purina, Richmond, Ind.] were provided ad libitum, and the animals were maintained on a 12 hour light and dark cycle. Cages, bedding and water bottles were autoclaved before use and were changed weekly. MiaPaca2, AsPC1 and BxPC3 human pancreatic carcinoma cells were purchased from ATCC (Manassas, Va.). BxPC3 and AsPC1 cells were grown in RPMI medium and MiaPaca2 cells were grown in Dulbecco's Modified Essential Medium (DMEM). All culture media were supplemented with 10% (v/v) FBS and 1% (v/v) […]. […] SCID-biege mice were implanted se with 5×10^6 BxPC3 cells in a 1:1 mixture of matrigel:PBS in a volume of 0.2 ml per mouse in the right hind flank on May 22, 2007. […] Formulated compound and vehicle were stored at 4° C. and prepared weekly. The suspension was mixed vigorously prior to administration. Gemcitabine (Gemzar®, Eli Lilly and Company, Indianapolis, Ind., USA) was reconstituted with sterile saline to yield a stock solution of 38 mg/ml for the entire 3-4 week study. […] Nude mice implanted with MiaPaca2 or AsPC1 xenografts were randomized on day 17 and day 9 post cell implant, respectively. SCID-beige mice bearing BxPC3 xenografts were randomized 8 days post implant. […] Treatment for the MiaPaca2 study began on Feb. […] For the MiaPaca2 and AsPC1 studies, qd Compound (1) suspension or q3d gemcitabine treatment ended on day 37 post tumor cell implant, whereas for the BxPC3 study, qd Compound (1) suspension or q3d gemcitabine treatment ended on day 35 post tumor cell implant. For intermittent dosing of Compound (1) suspension in the MiaPaca2 study using the 7+/7−/7+ schedule, treatment ended on day 23, was reinitiated on day 31, and ended day 37. In the combination groups Compound (1) suspension was given sequentially with gemcitabine using the 7+/7−/7+ schedule so that Compound (1) was dosed daily only during the first and third weeks, whereas gemcitabine was dosed q3d during the second week only. Efficacy data was graphically represented as the mean tumor volume+standard error of the mean (SEM). Tumor volumes of treated groups were presented as percentages of tumor volumes of the control groups (% T/C), using the formula: 100×((T−T0)/(C−C0)), where T represented mean tumor volume of a treated group on a specific day during the experiment, T0 represented mean tumor volume of the same […] on the first day of treatment; C represented mean tumor volume of a control group on the specific day during the experiment, and C0 represented mean tumor volume of the same treated group on the first day of treatment. Tumor volume (in cubic millimeters) was calculated using the ellipsoid formula: (D×(d2))/2 where ‘D’ represents the large diameter of the tumor, and ‘d’ represents the small diameter. In some cases, tumor regression and/or percent change in tumor volume was calculated using the formula: ((T−T0)/T0)×100 where ‘T’ represents mean tumor volume of the treated group at a particular day, and ‘T0’ represents mean tumor volume of the same treated group at initiation of treatment. Statistical analysis was determined by the rank sum test and One Way Anova and a post-hoc Bonferroni t-test (SigmaStat, version 2.0, Jandel Scientific, San Francisco, Calif.). […]

[2] = tested on: AsPC1 human pancreatic carcinoma xenografts; assay: Antitumor efficacy in AsPC1 pancreatic xenografts in nude mice; format: in vivo; conditions: 90 mg/kg ip q3d
Method: Female (athymic nu/nu) nude mice were obtained from Charles River Laboratories (Wilmington, Mass.), while female SCID-beige mice were purchased from Taconic (Germantown, N.Y.). Mice were used when they were approximately 8-12 weeks old (nudes) or 8-10 weeks old (SCID-beige), and weighed approximately 23-25 grams. The health of all animals was determined daily by gross observation of experimental animals and by the analyses of blood samples of sentinel animals that were housed on the shared shelf racks. All animals were allowed to acclimate and recover from any shipping related stress for a minimum of 72 hours prior to experimental use. Autoclaved water and irradiated food [5058-ms Pico chow (mouse) Purina, Richmond, Ind.] were provided ad libitum, and the animals were maintained on a 12 hour light and dark cycle. Cages, bedding and water bottles were autoclaved before use and were changed weekly. MiaPaca2, AsPC1 and BxPC3 human pancreatic carcinoma cells were purchased from ATCC (Manassas, Va.). BxPC3 and AsPC1 cells were grown in RPMI medium and MiaPaca2 cells were grown in Dulbecco's Modified Essential Medium (DMEM). All culture media were supplemented with 10% (v/v) FBS and 1% (v/v) […]. […] SCID-biege mice were implanted se with 5×10^6 BxPC3 cells in a 1:1 mixture of matrigel:PBS in a volume of 0.2 ml per mouse in the right hind flank on May 22, 2007. […] Formulated compound and vehicle were stored at 4° C. and prepared weekly. The suspension was mixed vigorously prior to administration. Gemcitabine (Gemzar®, Eli Lilly and Company, Indianapolis, Ind., USA) was reconstituted with sterile saline to yield a stock solution of 38 mg/ml for the entire 3-4 week study. […] Nude mice implanted with MiaPaca2 or AsPC1 xenografts were randomized on day 17 and day 9 post cell implant, respectively. SCID-beige mice bearing BxPC3 xenografts were randomized 8 days post implant. […] Treatment for the MiaPaca2 study began on Feb. […] For the MiaPaca2 and AsPC1 studies, qd Compound (1) suspension or q3d gemcitabine treatment ended on day 37 post tumor cell implant, whereas for the BxPC3 study, qd Compound (1) suspension or q3d gemcitabine treatment ended on day 35 post tumor cell implant. For intermittent dosing of Compound (1) suspension in the AsPC1 study using the 7+/7− schedule×2 cycles, treatment ended on day 15, was reinitiated on day 23, and finally ended day 29. For intermittent dosing using the 3+/4− schedule×4 cycles, treatment ended on day 11, was reinitiated on day 16, ended day 18, was reinitiated on day 23, ended day 25, was reinitiated day 30, and finally ended on day 32. In the first combination group, daily Compound (1) was given simultaneously with q3d gemcitabine for a total of four weeks. For the remaining combination groups, Compound (1) and gemcitabine were given sequentially rather than simultaneously. In group 8 gemcitabine was dosed q3d during the 1st and 3rd weeks, whereas Compound (1) was given daily during the 2nd and 4th weeks only. In group 9, the order of compound dosing was reversed, with Compound (1) suspension given daily during the 1st and 3rd weeks, whereas gemcitabine was given q3d during the 2nd and 4th weeks. In group 10, gemcitabine was dosed q3d during the 1st and 2nd weeks, whereas Compound (1) was given daily during the 3rd and 4th weeks. In group 11, the order of compound dosing was reversed, with Compound (1) given daily during the 1st and 2nd weeks, and gemcitabine dosed q3d for the 3rd and 4th weeks. […]

Nc1ccn([C@@H]2O[C@H](CO)[C@@H](O)C2(F)F)c(=O)n1 [gemcitabine, Gemcitabine, reference compound]
% TGI [1]: 62%
% TGI [2]: 39%
